{"source": "patent US8067424B2", "about": "“Selective inhibitors for cyclin-dependent kinases” (Emory University, priority 2007, dated 2011)", "assay_type_in_all_cases": "biochemical", "key": {"MAPKAP-K2": {"molecular_target": "MAPKAP-K2 (Homo sapiens, UniProt P49137)", "sequence (P49137 whole entry, species assumed)": "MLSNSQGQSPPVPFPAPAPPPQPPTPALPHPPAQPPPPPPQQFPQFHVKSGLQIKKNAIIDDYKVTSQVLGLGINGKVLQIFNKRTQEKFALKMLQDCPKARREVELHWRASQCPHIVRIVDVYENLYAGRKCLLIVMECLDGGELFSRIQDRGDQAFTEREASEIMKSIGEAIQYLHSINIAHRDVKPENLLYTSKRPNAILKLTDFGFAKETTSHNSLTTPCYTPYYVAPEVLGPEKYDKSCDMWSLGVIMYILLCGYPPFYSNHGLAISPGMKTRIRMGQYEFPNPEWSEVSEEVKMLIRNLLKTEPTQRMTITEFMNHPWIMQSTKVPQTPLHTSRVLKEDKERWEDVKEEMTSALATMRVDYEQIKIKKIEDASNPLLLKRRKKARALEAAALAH", "test": "Kinase screen: MAPKAP-K2 assay", "method": "(§1) Generally, the same procedure was used for all assays. Since the total assay volume was 25.5 microliters, 0.5 microliters of inhibitors at 51× assay concentration were added to the plates before any other addition.\n(§2) The basic procedure was to add 0.5 microliters inhibitor/control in DMSO to plate. Fifteen microliters of enzyme/substrate/buffer mix were added and incubated for 5 min. Ten microliters MgATP at the relevant concentration were added and incubated for 30 min. The assay was stopped by adding 5 microliters of 3% orthophosphoric acid. The assay was transferred to a p81 filter plate and read in a scintillation counter of 30 sec/well. Note that this assay procedure was not followed for MKK1, which instead involved a two-step assay, and PKC alpha, which required the addition of lipid vesicles.\nMAPKAP-K2 assay: MAPKAP-K2 (5-20 mU diluted in 20 mM MOPS pH 7.5, 1 mM EDTA, 0.01% Brij35, 5% glycerol, 0.1% b-mercaptoethanol, 1 mg/ml BSA) was assayed against […] (SEQ ID NO: 3) in a final volume of […] containing 50 mM Na-b-glycerophosphate pH 7.5, 0.5 mM EDTA, 30 μM substrate peptide, 10 mM magnesium acetate and 0.02 mM [33P-g-ATP] (50-1000 cpm/pmole) and incubated for 30 min at room temperature. Assays were stopped by addition of 5 μl of 0.5 M (3%) orthophosphoric acid and then harvested onto P81 Unifilter plates with a wash buffer of 50 mM orthophosphoric acid."}, "CK2": {"system": "CK2", "test": "Kinase screen: CK2 assay", "conditions": "for mean activity remaining (as a percentage of the original activity), CK 2: 10 micromolar compound", "method": "as §2, with “Generally, the same procedure was used for all assays. Since the total assay volume was 25.5 microliters, 0.5 microliters of inhibitors at 51× assay concentration were added to the plates before any other addition. […] The basic” for “The basic”, “30 min. […] The assay” for “30 min. The assay was stopped by adding 5 microliters of 3% orthophosphoric acid. The assay”, “lipid vesicles. CK2 assay: […]” for “lipid vesicles.”"}, "IGF-1R": {"molecular_target": "IGF-1R (Homo sapiens, UniProt P08069)", "sequence (P08069 31-1367, species assumed)": "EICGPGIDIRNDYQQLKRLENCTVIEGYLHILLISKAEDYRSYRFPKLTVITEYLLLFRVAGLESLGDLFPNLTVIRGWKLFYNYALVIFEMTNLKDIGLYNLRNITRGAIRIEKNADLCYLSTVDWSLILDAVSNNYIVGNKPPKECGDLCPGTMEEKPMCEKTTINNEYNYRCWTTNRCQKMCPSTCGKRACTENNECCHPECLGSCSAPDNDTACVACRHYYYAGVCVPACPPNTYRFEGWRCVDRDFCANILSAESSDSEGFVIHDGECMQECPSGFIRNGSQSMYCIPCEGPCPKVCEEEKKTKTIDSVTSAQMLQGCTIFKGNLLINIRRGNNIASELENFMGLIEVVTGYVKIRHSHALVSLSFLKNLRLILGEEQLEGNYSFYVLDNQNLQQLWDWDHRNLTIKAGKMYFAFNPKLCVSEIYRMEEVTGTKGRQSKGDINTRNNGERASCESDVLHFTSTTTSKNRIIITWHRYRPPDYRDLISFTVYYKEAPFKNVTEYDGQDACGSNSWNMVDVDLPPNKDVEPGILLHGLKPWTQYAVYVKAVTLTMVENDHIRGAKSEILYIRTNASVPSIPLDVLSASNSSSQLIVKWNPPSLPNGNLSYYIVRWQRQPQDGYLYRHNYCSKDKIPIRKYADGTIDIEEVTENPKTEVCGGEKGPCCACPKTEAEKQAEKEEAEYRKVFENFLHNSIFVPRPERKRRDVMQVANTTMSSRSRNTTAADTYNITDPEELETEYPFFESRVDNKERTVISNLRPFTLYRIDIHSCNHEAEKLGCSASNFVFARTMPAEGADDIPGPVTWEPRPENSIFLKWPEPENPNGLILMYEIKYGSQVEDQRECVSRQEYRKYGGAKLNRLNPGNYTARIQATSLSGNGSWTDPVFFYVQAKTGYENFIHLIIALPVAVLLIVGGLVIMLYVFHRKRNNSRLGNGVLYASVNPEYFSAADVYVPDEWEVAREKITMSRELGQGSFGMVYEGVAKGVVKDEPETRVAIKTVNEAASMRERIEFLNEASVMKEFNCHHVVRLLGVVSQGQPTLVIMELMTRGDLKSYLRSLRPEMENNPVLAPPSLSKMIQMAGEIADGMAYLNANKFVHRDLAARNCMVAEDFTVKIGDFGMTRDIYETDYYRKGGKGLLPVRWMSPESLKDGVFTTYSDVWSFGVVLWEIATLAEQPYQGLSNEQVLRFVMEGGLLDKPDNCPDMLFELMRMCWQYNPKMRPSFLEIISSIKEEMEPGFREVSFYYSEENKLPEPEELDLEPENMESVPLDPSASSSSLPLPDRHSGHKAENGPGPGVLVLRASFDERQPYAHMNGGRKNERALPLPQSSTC", "test": "Kinase screen: IGF-1R assay", "conditions": "10 micromolar compound; for remaining activity at 10 µM: read-out: mean activity remaining (as a percentage of the original activity), IGF1-R", "method": "as §1, §2\nIGF-1R assay: IGF-1R (5-20 mU diluted in 50 mM Tris pH 7.5, 0.1 mM EGTA, 1 mg/ml BSA) was assayed against a substrate peptide ([…]) (SEQ ID NO: in a final volume of 25.5 μl containing 50 mM Tris pH 7.5, 300 μM substrate peptide, 10 mM magnesium acetate and 0.005 mM [33P-g-ATP] (50-1000 cpm/pmole) and incubated for 30 min at room temperature. Assays were stopped by addition of 5 μl of 0.5 M (3%) orthophosphoric acid and then harvested onto P81 Unifilter plates with a wash buffer of 50 mM orthophosphoric acid."}, "EPH-B3": {"molecular_target": "T1, EPH-B3 (Homo sapiens, UniProt P54753)", "T1 sequence (P54753 34-998)": "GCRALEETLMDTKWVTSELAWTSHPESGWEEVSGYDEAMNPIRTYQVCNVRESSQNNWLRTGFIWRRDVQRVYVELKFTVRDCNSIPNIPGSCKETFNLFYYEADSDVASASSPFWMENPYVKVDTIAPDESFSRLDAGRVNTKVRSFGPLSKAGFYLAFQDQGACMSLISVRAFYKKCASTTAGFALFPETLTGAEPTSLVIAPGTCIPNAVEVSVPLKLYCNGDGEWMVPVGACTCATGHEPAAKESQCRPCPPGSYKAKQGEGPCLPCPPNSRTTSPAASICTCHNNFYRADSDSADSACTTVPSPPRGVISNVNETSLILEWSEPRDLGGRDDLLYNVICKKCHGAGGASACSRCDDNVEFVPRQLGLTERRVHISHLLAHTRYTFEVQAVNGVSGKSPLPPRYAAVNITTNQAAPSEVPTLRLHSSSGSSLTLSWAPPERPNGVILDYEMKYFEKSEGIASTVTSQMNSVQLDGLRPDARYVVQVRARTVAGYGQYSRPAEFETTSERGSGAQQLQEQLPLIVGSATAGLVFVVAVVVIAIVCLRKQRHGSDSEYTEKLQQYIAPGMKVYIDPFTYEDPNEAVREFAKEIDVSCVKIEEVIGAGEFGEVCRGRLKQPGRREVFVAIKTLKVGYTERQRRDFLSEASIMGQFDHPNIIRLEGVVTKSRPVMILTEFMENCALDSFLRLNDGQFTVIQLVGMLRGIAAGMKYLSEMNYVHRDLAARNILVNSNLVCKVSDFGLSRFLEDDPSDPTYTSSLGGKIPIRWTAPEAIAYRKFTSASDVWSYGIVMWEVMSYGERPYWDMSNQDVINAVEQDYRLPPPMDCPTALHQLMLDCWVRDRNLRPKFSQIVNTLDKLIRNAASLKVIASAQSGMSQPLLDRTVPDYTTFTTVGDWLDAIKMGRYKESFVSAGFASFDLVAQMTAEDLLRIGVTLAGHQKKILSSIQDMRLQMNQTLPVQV", "test": "Kinase screen: EPH-B3 assay", "conditions": "10 micromolar compound; for remaining activity at 10 µM: read-out: mean activity remaining (as a percentage of the original activity), EPH-B3", "method": "as §1, §2\nEPH-B3 assay: EPH-B3 (5-20 mU diluted in 50 mM Tris pH 7.5, 0.1 mM EGTA, 1 mg/ml BSA) was assayed against a substrate peptide (Poly Glut Tyr) in a final volume of 25.5 μl containing 50 mM Tris pH 7.5, 1 mg/ml substrate peptide, 10 mM magnesium acetate and 0.005 mM [33P-g-ATP] (50-1000 cpm/pmole) and incubated for 30 min at room temperature. Assays were stopped by addition of 5 μl of 0.5 M (3%) orthophosphoric acid and then harvested onto P81 Unifilter plates with a wash buffer of 50 mM orthophosphoric acid."}, "[1]": {"conditions": "10 micromolar compound, read-out: mean activity remaining (as a percentage of the original activity), MAPKAP-K2"}}, "note": "Like-named read-outs stand apart in the source and are kept apart here."}
{"smiles": "CC(C)c1cnn2c(NCc3ccccc3)cc(NCCCCCCCN)nc12", "note": "[BS-181]", "values": [{"measurement": "remaining activity at 10 µM", "setting": "MAPKAP-K2; MAPKAP-K2, 10 μM, read-out: Mean Remaining Enzyme Activity (%)", "result": 88, "unit": "%"}, {"measurement": "Mean Remaining Enzyme Activity (%)", "setting": "CK2; CK2, 10 μM", "result": 108, "unit": "%"}]}
{"smiles": "C=C[C@H](CO)Nc1cc(NCc2ccccc2)n2ncc(C(C)C)c2n1", "note": "[ICEC0065]", "values": [{"measurement": "remaining activity at 10 µM", "setting": "MAPKAP-K2; [1]", "result": 111, "unit": "%"}, {"measurement": "mean activity remaining (as a percentage of the original activity), CK 2", "setting": "CK2", "result": 94, "unit": "%"}, {"measurement": "remaining activity at 10 µM", "setting": "IGF-1R", "result": 63, "unit": "%"}, {"measurement": "remaining activity at 10 µM", "setting": "EPH-B3", "result": 83, "unit": "%"}]}
{"smiles": "CC[C@H](CO)Nc1cc(NCc2ccccc2)n2ncc(C(C)C)c2n1", "note": "[ICEC0067]", "values": [{"measurement": "remaining activity at 10 µM", "setting": "MAPKAP-K2; [1]", "result": 110, "unit": "%"}, {"measurement": "mean activity remaining (as a percentage of the original activity), CK 2", "setting": "CK2", "result": 87, "unit": "%"}, {"measurement": "remaining activity at 10 µM", "setting": "IGF-1R", "result": 63, "unit": "%"}, {"measurement": "remaining activity at 10 µM", "setting": "EPH-B3", "result": 79, "unit": "%"}]}
{"smiles": "CC(C)c1cnn2c(NCc3ccccc3)cc(N[C@@H](CO)[C@H](O)CO)nc12", "note": "[ICEC0318, (3S)-3-(7-(Benzylamino)-3-isopropylpyrazolo[1,5-a]pyrimidin-5-ylamino)butane-1,2,4-triol]", "values": [{"measurement": "remaining activity at 10 µM", "setting": "MAPKAP-K2; [1]", "result": 111, "unit": "%"}, {"measurement": "mean activity remaining (as a percentage of the original activity), CK 2", "setting": "CK2", "result": 89, "unit": "%"}, {"measurement": "remaining activity at 10 µM", "setting": "IGF-1R", "result": 67, "unit": "%"}, {"measurement": "remaining activity at 10 µM", "setting": "EPH-B3", "result": 72, "unit": "%"}]}
{"smiles": "CC(C)c1cnn2c(NCc3ccccc3F)cc(NCCCCCN)nc12", "note": "[ICEC-0232]", "values": [{"measurement": "mean activity remaining (as a percentage of the original activity), MAPKAP-K2", "setting": "MAPKAP-K2; 10 micromolar compound", "result": 88, "unit": "%"}, {"measurement": "mean activity remaining (as a percentage of the original activity), CK 2", "setting": "CK2", "result": 92, "unit": "%"}, {"measurement": "mean activity remaining (as a percentage of the original activity), IGF1-R", "setting": "IGF-1R", "result": 17, "unit": "%"}, {"measurement": "mean activity remaining (as a percentage of the original activity), EPH-B3", "setting": "EPH-B3", "result": 88, "unit": "%"}]}
